Assay results published in patent US12630521B2, “Arylamides and methods of use thereof” (Genzyme Corporation, priority 2019, dated 2026).

Legend:
[1] = molecular target: T1, human Cystic Fibrosis Transmembrane Conductance Regulator (CFTR) harboring the ΔF508 mutation (Homo sapiens, UniProt P13569, DEL508-508); test: H441 cell Emax and EC50: HRP-tagged ΔF508-CFTR cell-surface luminescence assay; format: cell-based; conditions: H441 cells expressing HRP-tagged ΔF508-CFTR, 27° C. for two nights; for EC50: 15-point dose-response; for Emax: NCI-H441, % of maximum VX809 signal
T1 construct: expressed in transfected cells; host or cells: H441 carcinoma cell line (G418 selection)
Description: Example 36: H441 Cell Emax and EC50
Two cell lines were used, the H441 carcinoma line and the CFHBE41o− (41o−) human bronchial epithelial line. Both cell lines expressed human Cystic Fibrosis Transmembrane Conductance Regulator (CFTR) harboring the ΔF508 mutation and with an in-frame fusion in CFTR extracellular loop 4 of Horse Radish Peroxidase (HRP) under control of the CMV promoter. In the presence of the HRP tag, ΔF508-CFTR transported to the cell surface was detectable upon addition of an HRP substrate (Luminata Forte). Both cell types were cultivated at 37° C. with CO2.
For both cell types, the medium was changed every other day unless the culture was at low % confluence. Cells were used for the assays at ˜75% confluence.
DMSO/Compound Dilutions Plate for 15-Point Dose-Response Testing
To a polypropylene (PP) 384-well plate, 15 μls DMSO was added to all wells in columns 1-22 and 24 (low Control). 15 μls of 260 μM VX809 (Lumacaftor), Selleckchem S1565, was added to column 23 wells (high Control). 15 μls of 10 mM test compound or VX809 (control) were added to wells of row A. Serial dilutions of Row A compound were performed 2×15 μls in rows A through 0 (15-point).
A PP, 384-well plate containing the appropriate cell culture medium was prepared for each assay plate with 100 μls per well. For the doxycycline-induced 41o− cells, doxycycline for both the assay plate and the medium dilution plate was added at 0.0005 mg/ml to the medium.
Both cell lines were plated for the assay at 30 μls per 384-well at 3.4×10^e5 cells per ml (˜10K cells/well). H441 cells were plated on opaque, white, Corning plate 3704. 41o− cells were plated on collagen-coated opaque, white, Corning plate 356665. For 41o− cells, doxycycline was added to the medium.
Compound Addition/Assay Incubation
Using FX (Beckman) protocol, 10 μls diluted compound or medium was added per well to the Assay Plate as: 2 μls DMSO Dilution plate well is diluted in 100 μls of the Medium Dilution Plate well, mixed, and 10 μls is transferred to the Assay Plate.
The final assay dilution series is 24.5, 12.3, 6.1, 3.1, 1.5, 0.8, 0.4, 0.2, 0.1, 0.05, 0.02, 0.01, 0.006, 0.003, 0.001 and 0 μM. The 41o− assay plates were incubated at 37° C. w/CO2, the H441 assay plates were incubated at 27° C. w/CO2, each overnight for two nights.
Assay Result Determination
After being brought to room temperature, the assay plate liquid was removed. 30 uls of Luminata Forte (Millipore ELLUF0100) was added per well and incubated at room temperature for 10 min. The plates were then read on a Topcount, protocol LumiMatti (CPS, luminescence). The data was analyzed for % of maximum, maximum VX809 signal, and EC50 using Pearl and SPEED tools.

[2] = molecular target: T2, CFTR (ΔF508 homozygous CF-HBE cells) (Homo sapiens, UniProt P13569, DEL508-508); test: TECC24 AUC fold over DMSO @10 uM: CFTR-mediated transepithelial chloride transport in primary CF-HBE cells; format: cell-based; conditions: 10 μM test agent, 48 hours, forskolin-stimulated IEQ AUC divided by vehicle AUC
T2 construct: Primary human bronchial epithelial cells from a ΔF508 homozygous CF donor; host or cells: primary CF-HBE cells (ΔF508/ΔF508 donor)
Protocol: Example 37: TECC24 AUC Fold Over DMSO @10 uM
The effects of a test agent on CFTR-mediated transepithelial chloride transport was measured using TECC24 recording analysis. Test agents were solubilized in DMSO. Solubilized test agents were mixed with incubation medium containing DMEM/F12, Ultroser G (2%; Crescent Chemical, catalog #67042), Hyclone Fetal Clone 11(2%; GE Healthcare, catalog #SH30066.02), bovine brain extract (0.25%; Lonza, catalog #CC-4098), insulin (2.5 μg/mL), IL-13 (10 ng/mL), hydrocortisone (20 nM), transferrin (2.5 μg/mL), triiodothyronine (500 nM), ethanolamine (250 nM), epinephrine (1.5 μM), phosphoethanolamine (250 nM), and retinoic acid (10 nM). Primary human bronchial epithelial cells from a ΔF508 homozygous CF donor (CF-HBE cells; from University of North Carolina Cystic Fibrosis Tissue Procurement Center), grown on Transwell HTS 24-well cell culture inserts (Costar, catalog #3378), were exposed to test agents or controls dissolved in incubation medium. The CF-HBE cells were cultured at 36.5° C. for 48 hours before TECC24 recordings were performed in the presence or absence of test agent, a positive control or vehicle (DMSO).
Following incubation, the transwell cell culture inserts containing the test agent or control-treated CF-HBE cells were loaded onto a TECC24 apparatus (TECC v7 or MTECC v2; EP Design) to record the transepithelial voltage (VT) and resistance (TEER) using 4 AgCl electrodes per well configured in current-clamp mode. The apical and basolateral bath solutions both contained (in mM) 140 NaCl, 5 KCl, 2 CaCl2, 1 MgCl2, 10 Hepes, and 10 glucose (adjusted to pH 7.4 with NaOH). To inhibit basal Na+ absorption, the ENaC inhibitor benzamil (10 μM) was added to the bath. Then, the adenylate cyclase activator, forskolin (10 μM), was added to the bath to activate CFTR. The forskolin-stimulated Cl— transport was halted by addition of CFTR inhibitor-172 (20 μM) to the bath at the end of the experiment to confirm specificity. VT and TEER recordings were digitally acquired at routine intervals using TECC or MTECC software (EP Design). VT and TEER were transformed into equivalent transepithelial Cl-current (IEQ), and the Area Under the Curve (AUC) of the IEQ time course between forskolin and CFTR inhibitor-172 addition is generated using Excel (Microsoft). Efficacy is expressed as the ratio of the test agent AUC divided by vehicle AUC. EC50s based on AUC are generated using the non-linear regression log(agonist) vs. response function in Prism software (GraphPad) with Hill Slope fixed=1.
If a test agent increased the AUC of the forskolin-stimulated IEQ relative to vehicle in CF-HBE cells, and this increase was inhibited by CFTR inhibitor-172, then the test agent was considered a CFTR corrector.

T2 sequence (P13569 with tags, fused parts or gaps DEL508-508): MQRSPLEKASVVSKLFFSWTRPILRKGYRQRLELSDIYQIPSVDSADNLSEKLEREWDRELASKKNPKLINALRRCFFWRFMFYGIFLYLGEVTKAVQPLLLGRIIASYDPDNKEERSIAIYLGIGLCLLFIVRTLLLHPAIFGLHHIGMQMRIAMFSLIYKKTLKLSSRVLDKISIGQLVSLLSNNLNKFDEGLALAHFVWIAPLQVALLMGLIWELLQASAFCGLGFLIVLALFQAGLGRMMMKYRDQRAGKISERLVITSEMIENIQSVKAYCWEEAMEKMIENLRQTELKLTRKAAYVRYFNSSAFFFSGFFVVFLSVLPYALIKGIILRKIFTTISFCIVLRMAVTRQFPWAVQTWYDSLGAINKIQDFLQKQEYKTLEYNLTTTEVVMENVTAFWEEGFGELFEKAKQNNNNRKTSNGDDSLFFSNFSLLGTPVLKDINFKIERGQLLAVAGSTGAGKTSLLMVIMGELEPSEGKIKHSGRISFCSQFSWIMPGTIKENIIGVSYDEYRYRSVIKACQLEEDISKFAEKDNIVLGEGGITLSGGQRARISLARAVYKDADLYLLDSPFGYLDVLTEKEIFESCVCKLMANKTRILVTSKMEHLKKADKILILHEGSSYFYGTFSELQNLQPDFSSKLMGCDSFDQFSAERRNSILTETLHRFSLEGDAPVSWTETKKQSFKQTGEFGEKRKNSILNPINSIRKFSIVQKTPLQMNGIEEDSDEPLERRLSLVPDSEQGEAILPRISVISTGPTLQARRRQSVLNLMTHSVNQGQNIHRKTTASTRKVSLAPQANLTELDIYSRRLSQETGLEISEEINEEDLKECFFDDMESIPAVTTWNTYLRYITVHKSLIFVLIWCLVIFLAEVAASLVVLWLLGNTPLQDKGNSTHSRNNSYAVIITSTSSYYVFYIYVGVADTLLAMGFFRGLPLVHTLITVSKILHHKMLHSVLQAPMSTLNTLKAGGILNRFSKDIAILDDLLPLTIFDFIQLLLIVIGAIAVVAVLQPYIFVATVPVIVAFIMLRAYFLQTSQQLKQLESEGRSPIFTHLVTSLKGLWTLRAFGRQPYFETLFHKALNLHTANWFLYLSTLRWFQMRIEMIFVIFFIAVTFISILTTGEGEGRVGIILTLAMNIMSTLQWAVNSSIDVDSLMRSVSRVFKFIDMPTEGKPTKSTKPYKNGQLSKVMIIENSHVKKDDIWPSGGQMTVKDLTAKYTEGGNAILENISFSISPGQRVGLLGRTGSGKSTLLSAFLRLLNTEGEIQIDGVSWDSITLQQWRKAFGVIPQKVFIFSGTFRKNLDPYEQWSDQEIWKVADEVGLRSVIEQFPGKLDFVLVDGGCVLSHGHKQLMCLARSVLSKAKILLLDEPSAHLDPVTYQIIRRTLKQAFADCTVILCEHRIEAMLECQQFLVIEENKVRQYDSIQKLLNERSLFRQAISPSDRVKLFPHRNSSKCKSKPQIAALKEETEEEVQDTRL
T1 sequence (P13569 with tags, fused parts or gaps DEL508-508): as above

Compound	EC50 [1]	Emax [1]	TECC24 AUC fold over DMSO [2]
CC(C)(C)[C@H](NC(=O)c1ccc2sc(C(F)F)cc2c1OCc1ccc(C(F)(F)F)cc1)C(=O)O [Compound 33-3, (2S)-2-(2-(difluoromethyl)-4-((4-(trifluoromethyl)benzyl)oxy)-benzo[b]thiophene-5-carboxamido)-3,3-dimethylbutanoic acid]	884 nM	350%	A (“A” refers to AUC @10 μM > 6)
CCC(C)(C)[C@H](NC(=O)c1ccc2cc(Cl)sc2c1OCc1ccc(C(F)(F)F)cc1)C(=O)O [Compound 33-15, (2S)-2-(2-chloro-7-((4-(trifluoromethyl)benzyl)oxy)-benzo[b]thiophene-6-carboxamido)-3,3-dimethylpentanoic acid]	880 nM	200%	A (“A” refers to AUC @10 μM > 6)
CC(C)c1cc2c(OCc3ccc(OC(F)(F)F)cc3)c(C(=O)N[C@H](C(=O)O)C(C)(C)C)ccc2s1 [Compound 33-4, (2S)-2-(2-isopropyl-4-((4-(trifluoromethoxy)benzyl)oxy)-benzo[b]thiophene-5-carboxamido)-3,3-dimethylbutanoic acid]	2350 nM	232%	A (“A” refers to AUC @10 μM > 6)
CCC(C)(C)[C@H](NC(=O)c1ccc2sccc2c1OCC1CCC(F)(F)CC1)C(=O)O [Compound 32-10, (2S)-2-(4-((4,4-difluorocyclohexyl)methoxy)-benzo[b]thiophene-5-carboxamido)-3,3-dimethylpentanoic acid]	7310 nM	85.3%	C (“C” refers to AUC @10 μM < 4)
CC1(C(NC(=O)c2ccc3sccc3c2OCC2CCC(F)(F)CC2)C(=O)O)CCCCC1 (stereo not drawn) [Compound 32-4, 2-(4-((4,4-difluorocyclohexyl)methoxy)-benzo[b]thiophene-5-carboxamido)-2-(1-methylcyclohexyl)acetic acid]	4370 nM	78.7%	C (“C” refers to AUC @10 μM < 4)
CC(C)(c1ccccc1)C(NC(=O)c1ccc2sccc2c1OCc1ccc(SC(F)(F)F)cc1)C(=O)O (stereo not drawn) [Compound 32-5, 3-methyl-3-phenyl-2-(4-((4-((trifluoromethyl)thio)benzyl)oxy)-benzo[b]thiophene-5-carboxamido)butanoic acid]	496 nM	93.5%	C (“C” refers to AUC @10 μM < 4)
CCC(C)(C)[C@H](NC(=O)c1ccc2sc(Cl)cc2c1OCc1ccc(C(F)(F)F)cc1)C(=O)O [Compound 33-6, (2S)-2-(2-chloro-4-((4-(trifluoromethyl)benzyl)oxy)-benzo[b]thiophene-5-carboxamido)-3,3-dimethylpentanoic acid]	500 nM	279%	A (“A” refers to AUC @10 μM > 6)
CC(C)c1cc2ccc(C(=O)N[C@H](C(=O)O)C(C)(C)C)c(OCc3ccc(OC(F)(F)F)cc3)c2s1 [Compound 33-12, (2S)-2-(2-isopropyl-7-((4-(trifluoromethoxy)benzyl)oxy)-benzo[b]thiophene-6-carboxamido)-3,3-dimethylbutanoic acid]	999 nM	150%	C (“C” refers to AUC @10 μM < 4)

Other lines, results leading:

EC50 [1]	Emax [1]	TECC24 AUC fold over DMSO [2]	Compound
406 nM	222%	A (“A” refers to AUC @10 μM > 6)	CCC(C)(C)[C@H](NC(=O)c1ccc2sc(Cl)c(C)c2c1OCc1ccc(C(F)(F)F)cc1)C(=O)O [Compound 34-3]
755 nM	169%	A (“A” refers to AUC @10 μM > 6)	CCC(C)(C)[C@H](NC(=O)c1ccc2cc(Cl)sc2c1OCc1ccc(OC(F)(F)F)cc1)C(=O)O [Compound 33-22, (2S)-2-(2-chloro-7-((4-(trifluoromethoxy)benzyl)oxy)-benzo[b]thiophene-6-carboxamido)-3,3-dimethylpentanoic acid]
750 nM	165%	A (“A” refers to AUC @10 μM > 6)	CCC(C)(C)[C@H](NC(=O)c1ccc2sc(C(F)F)cc2c1OCc1ccc(C(F)(F)F)cc1)C(=O)O [Compound 33-36, (2S)-2-(2-(difluoromethyl)-4-((4-(trifluoromethyl)benzyl)oxy)-benzo[b]thiophene-5-carboxamido)-3,3-dimethylpentanoic acid]
309 nM	262%	A (“A” refers to AUC @10 μM > 6)	CCc1cc2c(OCc3ccc(C(F)(F)F)cc3)c(C(=O)N[C@H](C(=O)O)C(C)(C)CC)ccc2s1 [Compound 33-27, (2S)-2-(2-ethyl-4-((4-(trifluoromethyl)benzyl)oxy)-benzo[b]thiophene-5-carboxamido)-3,3-dimethylpentanoic acid]
2780 nM	81.2%	C (“C” refers to AUC @10 μM < 4)	CCC(C)(C)[C@H](NC(=O)c1ccc2sc(-c3cscn3)cc2c1OCc1ccc(C(F)(F)F)cc1)C(=O)O [Compound 33-20, (2S)-3,3-dimethyl-2-(2-(thiazol-4-yl)-4-((4-(trifluoromethyl)benzyl)oxy)-benzo[b]thiophene-5-carboxamido)pentanoic acid]
427 nM	255%	A (“A” refers to AUC @10 μM > 6)	CCC(C)(C)[C@H](NC(=O)c1ccc2cc(C)sc2c1OCc1ccc(C(F)(F)F)cc1)C(=O)O [Compound 33-19, (2S)-3,3-dimethyl-2-(2-methyl-7-((4-(trifluoromethyl)benzyl)oxy)-benzo[b]thiophene-6-carboxamido)pentanoic acid]
